Data reported in patent US20230333121A1, “METHODS AND COMPOSITIONS RELATING TO BIOMARKERS FOR NEURODEGENERATIVE DISEASES” (ANACALYPSIS THERAPEUTICS, IKE, priority 2020, published 2023).

Target: T1, pS935-LRRK2 (Homo sapiens, UniProt Q5S007)
T1 construct: fresh PBMCs from healthy volunteer donors; endogenous in cells; host or cells: fresh and cryopreserved PBMCs from healthy volunteer donors
Test: pS935-LRRK2 ELISA on freshly isolated PBMCs from healthy volunteers
Format: cell-based
Settings: increasing concentrations, 1 hour (FIG. 3C)
Protocol: Phosphorylation of LRRK2 at the Ser935 residue by ELISA was assessed. For each sample, the signal corresponding to pS935-LRRK2 was normalized to its corresponding value of total LRRK2 (in ng/ml). Increasing amounts of recombinant human full-length LRRK2 was bound to parallel ELISA plates using the c41-2 clone for capture, and detected using total (N241A; for normalization) or phosphorylated (pS935-LRRK2, UDD2) antibodies (FIG. 3A). […] Freshly isolated PBMCs from healthy volunteers were treated with increasing concentrations of the kinase inhibitor PF-475 for 1 hour, and subjected to pS935-LRRK2 ELISA (FIG. 3C). […] In contrast, in PBMC extracts from carriers of the G2019S mutation, with and without PD, there was a non-significant trend towards lower levels of pS935-LRRK2 compared to healthy controls (FIG. 3E). The values of all G2019S carriers are pooled for comparison against healthy controls (FIG. 3F). Levels of pS935-LRRK2 and various clinical parameters were compared (FIG. 3G). In iPD patients, there was no correlation between pS935-LRRK2 and the motor function scale UPDRS-III (not shown); however, performance on the cognitive function test, MoCA, was negatively correlated with pS935-LRRK2 levels in iPD patients (FIG. 3G; right panel) and healthy controls (FIG. 3G; center panel).

T1 sequence (Q5S007 whole entry): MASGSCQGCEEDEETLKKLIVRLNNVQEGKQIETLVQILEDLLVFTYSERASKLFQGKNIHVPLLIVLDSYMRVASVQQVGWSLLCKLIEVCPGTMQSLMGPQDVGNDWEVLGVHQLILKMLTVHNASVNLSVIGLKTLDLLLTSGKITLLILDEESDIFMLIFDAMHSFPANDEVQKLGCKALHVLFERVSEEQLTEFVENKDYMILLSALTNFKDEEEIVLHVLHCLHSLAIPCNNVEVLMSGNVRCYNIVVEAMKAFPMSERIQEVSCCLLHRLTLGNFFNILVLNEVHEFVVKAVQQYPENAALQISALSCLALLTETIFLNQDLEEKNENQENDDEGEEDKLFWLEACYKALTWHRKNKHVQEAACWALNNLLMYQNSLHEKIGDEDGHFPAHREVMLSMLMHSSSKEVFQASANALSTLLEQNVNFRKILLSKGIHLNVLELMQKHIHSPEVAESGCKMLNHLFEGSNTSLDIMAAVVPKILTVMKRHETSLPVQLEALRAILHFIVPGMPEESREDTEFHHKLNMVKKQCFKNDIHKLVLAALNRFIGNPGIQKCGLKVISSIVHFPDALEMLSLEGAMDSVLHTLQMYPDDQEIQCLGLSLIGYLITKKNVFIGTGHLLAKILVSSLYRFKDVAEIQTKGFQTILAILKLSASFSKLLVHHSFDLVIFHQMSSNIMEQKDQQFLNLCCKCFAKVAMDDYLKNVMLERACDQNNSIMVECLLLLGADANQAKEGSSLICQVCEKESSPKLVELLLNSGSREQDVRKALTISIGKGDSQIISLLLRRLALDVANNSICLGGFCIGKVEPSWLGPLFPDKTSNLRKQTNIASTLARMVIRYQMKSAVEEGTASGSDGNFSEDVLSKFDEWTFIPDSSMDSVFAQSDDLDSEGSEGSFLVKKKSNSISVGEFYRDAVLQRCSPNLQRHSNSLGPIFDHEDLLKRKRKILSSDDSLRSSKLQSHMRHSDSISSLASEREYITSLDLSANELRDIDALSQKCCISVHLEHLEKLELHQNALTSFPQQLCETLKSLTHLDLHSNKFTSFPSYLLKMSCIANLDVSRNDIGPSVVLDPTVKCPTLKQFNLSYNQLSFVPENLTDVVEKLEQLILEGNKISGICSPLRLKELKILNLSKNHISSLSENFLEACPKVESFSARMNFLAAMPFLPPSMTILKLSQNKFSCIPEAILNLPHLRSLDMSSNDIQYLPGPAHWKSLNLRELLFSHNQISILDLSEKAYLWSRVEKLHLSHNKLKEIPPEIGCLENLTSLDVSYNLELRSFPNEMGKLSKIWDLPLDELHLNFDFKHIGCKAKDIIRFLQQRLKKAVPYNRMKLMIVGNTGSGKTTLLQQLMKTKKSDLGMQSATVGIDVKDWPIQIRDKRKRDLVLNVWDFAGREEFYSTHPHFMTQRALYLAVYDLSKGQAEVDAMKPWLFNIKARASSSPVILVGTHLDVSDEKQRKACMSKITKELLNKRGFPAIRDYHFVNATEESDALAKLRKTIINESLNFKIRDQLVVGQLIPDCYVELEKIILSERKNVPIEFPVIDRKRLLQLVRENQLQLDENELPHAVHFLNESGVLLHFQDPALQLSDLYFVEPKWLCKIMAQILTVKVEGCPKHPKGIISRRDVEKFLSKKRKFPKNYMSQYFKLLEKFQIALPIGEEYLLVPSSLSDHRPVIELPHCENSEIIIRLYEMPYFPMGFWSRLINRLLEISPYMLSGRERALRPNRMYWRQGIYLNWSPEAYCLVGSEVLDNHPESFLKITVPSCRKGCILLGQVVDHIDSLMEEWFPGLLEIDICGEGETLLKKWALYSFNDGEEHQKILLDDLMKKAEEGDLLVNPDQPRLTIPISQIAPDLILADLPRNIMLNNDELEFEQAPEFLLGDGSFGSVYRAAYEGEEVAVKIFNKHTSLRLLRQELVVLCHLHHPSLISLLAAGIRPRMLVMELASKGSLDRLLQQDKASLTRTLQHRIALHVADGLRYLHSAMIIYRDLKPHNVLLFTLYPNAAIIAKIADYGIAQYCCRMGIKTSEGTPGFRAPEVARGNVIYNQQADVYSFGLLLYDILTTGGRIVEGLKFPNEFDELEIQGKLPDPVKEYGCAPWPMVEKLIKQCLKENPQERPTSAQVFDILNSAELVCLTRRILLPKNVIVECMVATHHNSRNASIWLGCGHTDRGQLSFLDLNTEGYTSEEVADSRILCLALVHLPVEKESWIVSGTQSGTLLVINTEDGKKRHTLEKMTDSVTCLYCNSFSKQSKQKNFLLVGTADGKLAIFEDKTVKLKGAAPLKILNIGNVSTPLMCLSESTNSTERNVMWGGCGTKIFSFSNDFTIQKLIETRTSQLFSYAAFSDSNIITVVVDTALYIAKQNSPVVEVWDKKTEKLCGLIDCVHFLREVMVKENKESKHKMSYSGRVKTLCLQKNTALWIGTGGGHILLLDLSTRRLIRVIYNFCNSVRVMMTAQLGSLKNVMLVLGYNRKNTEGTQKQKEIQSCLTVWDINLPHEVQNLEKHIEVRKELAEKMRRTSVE

N#Cc1cccc(-c2c[nH]c3ncnc(N4CCOCC4)c23)c1 [PF-475]
phosphorylated LRRK2 (pS935-LRRK2) level: significant dose-dependent loss
